From PMC9885530, “Identification of Natural Products Inhibiting SARS-CoV-2 by Targeting Viral Proteases: A Combined in Silico and in Vitro Approach” (Journal of Natural Products, 2023)
Values joined by “and” are separate entries in the source; they are usually repeats but may differ in a detail not shown here. Equal values may be shown once. Read-outs that look alike come from different tables or passages of the source.

Columns and labels:
[1] = molecular target: T1, SARS-CoV-2 PLpro (Severe acute respiratory syndrome coronavirus 2, UniProt P0DTD1); test: biochemical; set-up: papain-like protease (PL^pro; domain of nsp3); purchased Anaspec (Fremont, USA) AS-72263; conditions: for inhibition at 20 µM: read-out: SARS-CoV-2 PLpro inhibition % enzyme inhibition (20 µM); for SARS-CoV-2 PLpro inhibition % enzyme inhibition (20 µM): commercial Anaspec assay kit
[2] = molecular target: T1, SARS-CoV-2 PLpro; test: PL^pro fluorogenic peptide cleavage assay (substrate Z-RLRGG-AMC); type: biochemical; set-up: papain-like protease (PL^pro; domain of nsp3); His; purchased BPS Biosciences BPS-100735-1; conditions: for inhibition at 20 µM: read-out: SARS-CoV-2 PL^pro enzyme inhibition (%) 20 μM; for inhibition at 100 µM: read-out: SARS-CoV-2 PL^pro enzyme inhibition (%) 100 μM
[3] = molecular target: SARS-CoV-2 M^pro (Severe acute respiratory syndrome coronavirus 2, UniProt P0DTD1); test: biochemical; type: biochemical; conditions: for inhibition at 20 µM: read-out: SARS-CoV-2 M^pro enzyme inhibition (%) 20 μM; for inhibition at 100 µM: 100 μM compound, read-out: SARS-CoV-2 M^pro enzyme inhibition (%) 100 μM
[4] = tested on: SARS-CoV-2; test: Antiviral assay in Caco-2 cells; type: cell-based; conditions: Severe acute respiratory syndrome coronavirus 2, Caco-2, read-out: Anti SARS-CoV-2 activity Caco-2 IC50 (µM)
[5] = tested on: SARS-CoV-2; test: Antiviral assay in Calu-3 cells (spike staining); type: cell-based; conditions: for antiviral activity against SARS-CoV-2 (in words): two different cell lines (Caco-2, Calu-3)
[6] = Cytotoxicity in Caco-2 cells; conditions: human
[7] = Cytotoxicity in Calu-3 cells; conditions: human
[8] = in vitro; conditions: human
[9] = molecular target: T2, M^pro (Severe acute respiratory syndrome coronavirus 2, UniProt P0DTD1); type: binding; conditions: 2 μM protein, 50 μM ligand
[10] = molecular target: T2, M^pro; test: Competitive 1H CPMG relaxation dispersion NMR with compound 4 as reporter ligand; type: binding, SARS-CoV-2; conditions: competition with compound 4
[11] = 20 μM compound, buffer with 5 mM DTT, for values marked a the relative standard deviation of 6% applies
[12] = Severe acute respiratory syndrome coronavirus 2, Calu-3, 48 h, read-out: Anti-SARS-CoV-2 activity IC50 (μM)
[13] = Severe acute respiratory syndrome coronavirus 2, Calu-3 cells, MOI 0.01, 48 h postinfection, read-out: Anti-SARS-CoV-2 activity IC50
[14] = read-out: SARS-CoV-2 M^pro IC50, buffer with 5 mM DTT

COc1ccc(CNC(=O)c2cn(CCC(C)C)c(=O)c3ccccc23)cc1OC [Compound 48]
inhibition at 20 µM [1]: 32 ± 4.2% | inhibition at 20 µM [2]: 8.2 ± 2.3% | inhibition at 100 µM [2]: 0.3 ± 0.5%

O=C(CC(c1ccccc1)c1ccccc1)NCCCc1ccccc1 [Compound 40]
inhibition at 20 µM [1]: 41.5 ± 16.5% | inhibition at 20 µM [2]: 1.6 ± 8.8% | inhibition at 100 µM [2]: 5 ± 2.6%

COCCN1C(=O)C(O)=C(C(=O)c2ccc(OC)c(C)c2)C1c1ccc(O)cc1 (stereo not shown) [Compound 39]
inhibition at 20 µM [1]: 26 ± 34.7% | inhibition at 20 µM [2]: 10 ± 5.4% | inhibition at 100 µM [2]: 42 ± 1.3%

CN1[C@@H](CC(=O)c2ccccc2)CCC[C@H]1C[C@H](O)c1ccccc1 [Compound 32, lobelin]
inhibition at 20 µM [1]: 26.6 ± 11% | inhibition at 20 µM [2]: 3.7 ± 2.6%

O=C(CCc1ccccc1)C[C@H]1C[C@H](c2ccccc2)c2c(cc(/C=C/c3ccccc3)oc2=O)O1 [Compound 17, katsumadain A]
inhibition at 20 µM [3, 11]: 5% | inhibition at 100 µM ([3]; buffer with 5 mM DTT): 47.7 ± 2.8%

CC(C)=CCC/C(C)=C/Cc1c(O)ccc([C@@H]2CC(=O)c3c(O)cc(O)cc3O2)c1O [Compound 11, sanggenol A]
inhibition at 20 µM [3, 11]: 31.9% | inhibition at 100 µM ([3]; buffer with 5 mM DTT): 98.3 ± 2.4%

C=CCc1ccc(O)c(-c2cc(CC=C)ccc2O)c1 [Compound 36, magnolol]
inhibition at 20 µM [1]: 58.2 ± 11.5% | IC50 [4]: 17.7 µM | inhibition at 20 µM [2]: 4.3 ± 6.6% | IC50 [5, 12]: 26.8 µM | antiviral activity against SARS-CoV-2 (in words) [5]: moderately acting antiviral compounds | CC50 [6]: 47.3 µM | CC50 [7]: > 20 µM

COc1cc2c(cc1OC)/C(=C/C(=O)c1ccc(CSC)cc1)NCC2 [Compound 41]
inhibition at 20 µM [2]: 9.6 ± 5.8% | inhibition at 100 µM [2]: 14.6 ± 13.1%

COc1ccc(C(=O)COc2ccc3c(c2)O/C(=C\c2cc(OC)ccc2OC)C3=O)cc1 [Compound 43]
inhibition at 20 µM [1]: 13.5 ± 25.5% | inhibition at 20 µM [2]: 10 ± 5.4% | inhibition at 100 µM [2]: 14.3 ± 3.4%

CCC(CC)COC(=O)[C@H](C)N[P@](=O)(OC[C@H]1O[C@@](C#N)(c2ccc3c(N)ncnn23)[C@H](O)[C@@H]1O)Oc1ccccc1 [Compound 1, remdesivir, reference compound]
IC50 [5, 13]: 0.00125 µM | CC50 [7]: > 0.1 µM

CC(C)=CCc1c(-c2ccc(O)cc2O)oc2c3c(cc(O)c2c1=O)OC(C)(C)C=C3 [Compound 23, morusin]
CC50 [8]: 25.2 µM | IC50 [3, 14]: 33.5 µM | IC50 [5, 13]: 24.9 µM

CC(C)=CC[C@@]12Oc3cc(O)c([C@H]4C=C(C)C[C@H](c5ccc(O)cc5O)[C@H]4C(=O)c4ccc(O)cc4O)c(O)c3C(=O)[C@]1(O)Oc1cc(O)ccc12 [Compound 13, sanggenon O]
STD signals [9]: no STD signals were detected | IC50 [3, 14]: 6.7 µM | displacement of reporter ligand 4 from M^pro (CPMG-RD) [10]: did not significantly displace 4 | IC50 [5, 13]: 8 µM | CC50 [7]: 24.9 µM

C=C(C)[C@H](CC=C(C)C)Cc1c(O)cc(OC)c2c1O[C@H](c1ccc(O)cc1O)CC2=O [Compound 21, kurarinone]
inhibition at 20 µM [3, 11]: 30.2% | inhibition at 100 µM ([3]; buffer with 5 mM DTT): 99.2 ± 2.5%

CC(C)=CCc1c(-c2ccc(O)c3c2OC(C)(C)C=C3)oc2cc(O)cc(O)c2c1=O [Compound 22, kuwanon A]
CC50 [8]: 47.7 µM | inhibition at 20 µM [3, 11]: 45.5 ± 7.1% | inhibition at 100 µM ([3]; buffer with 5 mM DTT): 79.2 ± 2.4% | IC50 [3, 14]: 35.2 µM | IC50 [5, 13]: 35.6 µM

COc1ccc(C(=O)N(CCN(Cc2ccccc2)C(=O)c2ccc(OC)cc2)Cc2ccccc2)cc1 [Compound 27]
inhibition at 20 µM [3, 11]: 4.8 ± 4% | inhibition at 100 µM ([3]; buffer with 5 mM DTT): 28.2 ± 8.3%

Cn1cc(CNC(=O)c2cc([N+](=O)[O-])ccc2Cl)cn1 [Compound 38]
inhibition at 20 µM [1]: 26.1 ± 15.2% | inhibition at 20 µM [2]: 3 ± 0.7% | inhibition at 100 µM [2]: 6.4 ± 4.6%

O=C(/C=C/c1ccc(O)c(O)c1)O[C@@H](C(=O)O)[C@@H](OC(=O)/C=C/c1ccc(O)c(O)c1)C(=O)O [Compound 18, chicoric acid]
inhibition at 20 µM [3, 11]: 0.7% | inhibition at 100 µM ([3]; buffer with 5 mM DTT): 11.5 ± 0.6%

CC(C)(O)CCc1c(-c2ccc(O)cc2O)oc2c3c(cc(O)c2c1=O)OC(C)(C)C=C3 [Compound 24, morusinol]
inhibition at 20 µM [3, 11]: 23.1 ± 2.8% | inhibition at 100 µM ([3]; buffer with 5 mM DTT): 71.2 ± 1.9%

COc1cc([C@@H]2Oc3c(O)cc([C@H]4Oc5cc(O)cc(O)c5C(=O)[C@@H]4O)cc3[C@H]2CO)ccc1O [Compound 33, silicristin]
inhibition at 20 µM [2]: 3.4 ± 7.8% | inhibition at 100 µM [2]: 19.8 ± 2%

Oc1ccc([C@@H]2c3c(O)cc(O)cc3[C@@H]3c4c(O)cc(O)cc4[C@H]2[C@H]3c2ccc(O)cc2)cc1 [Compound 25, ampelopsin F]
inhibition at 20 µM [3, 11]: 18.9 ± 2.2% | inhibition at 100 µM ([3]; buffer with 5 mM DTT): 37.5 ± 0.8%

CC(C)=CCc1cc(-c2coc3cc(O)ccc3c2=O)ccc1O [Compound 20, neobavaisoflavone]
inhibition at 20 µM [3]: 18%

COc1cc(O)c(C(=O)/C=C/c2ccccc2)c(O)c1[C@H]1C[C@H](c2ccccc2)Oc2c(OC)c(O)cc(OC)c21 [Compound 26, sarcandrone B]
inhibition at 20 µM [3, 11]: 1.2 ± 2.5% | inhibition at 100 µM ([3]; buffer with 5 mM DTT): 7.5 ± 2.5%

CC(C)=CC[C@]12Oc3cc(O)c([C@H]4C=C(C)C[C@H](c5ccc(O)cc5O)[C@H]4C(=O)c4ccc(O)cc4O)c(O)c3C(=O)[C@@]1(O)Oc1cc(O)ccc12 [Compound 12, sanggenon C]
STD signals [9]: no STD signals were detected | IC50 [3, 14]: 7.24 µM and 7.2 µM | displacement of reporter ligand 4 from M^pro (CPMG-RD) [10]: displacement from the binding site | IC50 [5, 13]: 4.6 µM | CC50 [7]: 23.6 µM

CC(C)(O)[C@H](O)COc1c2ccoc2cc2oc(=O)ccc12 [Compound 37, oxypeucedanin hydrate]
SARS-CoV-2 PLpro inhibition % enzyme inhibition (20 µM) [1]: significant enzyme inhibition | inhibition at 20 µM [1]: 97.5 ± 14.6% | CC50 [8]: > 100 µM | IC50 [5, 12]: > 100 µM

O=C(/C=C/c1ccc(O)c(O)c1)OC1CC(OC(=O)/C=C/c2ccc(O)c(O)c2)(C(=O)O)CC(O)C1O (stereo not shown) [Compound 19, cynarine]
inhibition at 100 µM ([3]; buffer with 5 mM DTT): 9.8 ± 13.3%

COc1cc(C2Oc3cc([C@H]4Oc5cc(O)cc(O)c5C(=O)[C@@H]4O)ccc3OC2CO)ccc1O (stereo partly shown) [Compound 34, silibinin]
inhibition at 20 µM [1]: 50.3 ± 14.3% | CC50 [8]: > 100 µM | inhibition at 20 µM [2]: 6.5 ± 3.6% | IC50 [5, 12]: > 100 µM

C=CCc1ccc(O)c(-c2ccc(O)c(CC=C)c2)c1 [Compound 35, honokiol]
SARS-CoV-2 PLpro inhibition % enzyme inhibition (20 µM) [1]: significant enzyme inhibition | inhibition at 20 µM [1]: 80.6 ± 9.9% | IC50 [4]: 16.2 µM | inhibition at 20 µM [2]: 4.9 ± 4.6% | inhibition at 100 µM [2]: 5.3 ± 3.2% | IC50 [5, 12]: 28.4 µM | antiviral activity against SARS-CoV-2 (in words) [5]: moderately acting antiviral compounds | CC50 [6]: 91.2 µM | CC50 [7]: > 20 µM

CC(C)=CCC12Oc3cc(O)c([C@@H]4C=C(C)C[C@H](c5ccc(O)cc5O)[C@H]4C(=O)c4ccc(O)cc4O)c(O)c3C(=O)C1(O)Oc1cc(O)ccc12 (stereo partly shown) [Compound 14, sanggenon D]
STD signals [9]: exhibited STD signals | IC50 ([3]; SARS-CoV-2 M^pro IC50 (μM), buffer with 5 mM DTT): 13.8 µM and 13.9 µM | IC50 [5, 13]: 18.5 µM | CC50 [7]: 46.2 µM

CC1=C[C@H](c2c(O)ccc([C@@H]3CC(=O)c4c(O)cc(O)cc4O3)c2O)[C@@H](C(=O)c2ccc(O)cc2O)[C@H](c2ccc(O)cc2O)C1 [Compound 16, kuwanon L]
STD signals [9]: exhibited STD signals | inhibition at 20 µM [3, 11]: 70.4% | inhibition at 100 µM ([3]; buffer with 5 mM DTT): 97.6 ± 2.5% | IC50 ([3]; read-out: SARS-CoV-2 M^pro IC50): 5.25 µM and 5.3 µM | CC50 [7]: 97.7 µM

COc1ccc(S(=O)(=O)NCc2ccc(C(=O)NCc3ccccc3)cc2)cc1 [Compound 44]
inhibition at 20 µM [1]: 18.5 ± 16.6% | inhibition at 20 µM [2]: 6.4 ± 4.2% | inhibition at 100 µM [2]: 1.5 ± 1.2%

COc1cc(CNC(=O)CCCC/C=C/C(C)C)ccc1O [Compound 31, trans-capsaicin]
inhibition at 20 µM [1]: 32.4 ± 13.7% | inhibition at 20 µM [2]: 5.6 ± 9.7% | inhibition at 100 µM [2]: 5.3 ± 0.1%

O=C(CCCN1C(=O)c2ccccc2N2C(=O)c3ccccc3C12)NCCc1cnc[nH]1 (stereo not shown) [Compound 28]
inhibition at 20 µM [3, 11]: 14.1 ± 5.1% | inhibition at 100 µM ([3]; buffer with 5 mM DTT): 59.7 ± 1%

COc1ccc(CNC(=O)c2ccc(Cn3c(=O)c(C)nc4ccccc43)cc2)cc1 [Compound 46]
inhibition at 20 µM [2]: 12.7 ± 6.9% | inhibition at 100 µM [2]: 14 ± 3.4%

Cn1c(=O)c2c(nc(SCC(=O)Nc3ccc4c(c3)OCO4)n2Cc2cccc(Cl)c2)n(C)c1=O [Compound 29]
inhibition at 100 µM ([3]; buffer with 5 mM DTT): 7.3 ± 10.2%

COc1cc(CC(CO)Oc2ccc(CCCO)cc2OC)ccc1O (stereo not shown) [Compound 47]
inhibition at 20 µM [1]: -55.8 ± 32.4% | inhibition at 20 µM [2]: 8.8 ± 5.6% | inhibition at 100 µM [2]: 0.5 ± 0.8%

COc1ccc2c(C)c(CC(=O)Nc3c(C)cccc3C(C)C)c(=O)oc2c1OC [Compound 45]
inhibition at 20 µM [1]: -2.6 ± 36.1% | inhibition at 20 µM [2]: 9 ± 4.3% | inhibition at 100 µM [2]: 2.6 ± 0.1%
